Reference: patent US6737383B1, “Herbicidal oxadiazolidines” (priority 1999, dated 2004)

Key:
rice = experiment: Test B flood test rice; assay type: in vivo, Oryza sativa
Method in brief: (§1)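 Flood test on plants grown to the 2-leaf stage; treated plants kept in greenhouse twelve to sixteen days, then visually rated against controls on a 0 (no effect) to 10 (complete control) scale.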

wheat = experiment: Test B pre/postemergence wheat; assay type: in vivo, Triticum aestivum; settings: for Wheat plant response rating: scale of 0 to 10 where 0 is no effect and 10 is complete control
Method in brief: (§2)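 Test chemicals in a non-phytotoxic solvent mixture with surfactant were sprayed preemergence onto planted seeds and postemergence onto plants 2 to 18 cm tall (1- to 4-leaf stage). After twelve to sixteen days in a greenhouse, injury was visually rated against untreated controls from 0 (no effect) to 10 (complete control).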

sugar beet = experiment: Test B pre/postemergence sugar beet; assay type: in vivo, Beta vulgaris; settings: for Sugarbeets plant response rating: scale of 0 to 10 where 0 is no effect and 10 is complete control
Method in brief: as §2

cocklebur = experiment: Test B pre/postemergence cocklebur; assay type: in vivo, Xanthium strumarium; settings: for Cocklebur plant response rating: scale of 0 to 10 where 0 is no effect and 10 is complete control
Method in brief: as §2

bamyardgrass = experiment: Test B flood test barnyardgrass; assay type: in vivo, Echinochloa crus-galli
Method in brief: as §1

giant foxtail = experiment: Test B pre/postemergence giant foxtail; assay type: in vivo, Setaria faberii; settings: for Giant foxtail plant response rating: scale of 0 to 10 where 0 is no effect and 10 is complete control
Method in brief: as §2

purple nutsedge = experiment: Test B pre/postemergence purple nutsedge; assay type: in vivo, Cyperus rotundus; settings: for Nutsedge plant response rating: scale of 0 to 10 where 0 is no effect and 10 is complete control
Method in brief: as §2

soybean = experiment: Test B pre/postemergence soybean; assay type: in vivo, Glycine max; settings: for Soybean plant response rating: scale of 0 to 10 where 0 is no effect and 10 is complete control
Method in brief: as §2

pigweed = experiment: Test B pre/postemergence pigweed; assay type: in vivo, Amaranthus retroflexus; settings: for Redroot pigweed plant response rating: scale of 0 to 10 where 0 is no effect and 10 is complete control
Method in brief: as §2

blackgrass = experiment: Test B pre/postemergence blackgrass; assay type: in vivo, Alopecurus myosuroides
Method in brief: as §2

velvetleaf = experiment: Test B pre/postemergence velvetleaf; assay type: in vivo, Abutilon theophrasti; settings: for Velvetleaf plant response rating: scale of 0 to 10 where 0 is no effect and 10 is complete control
Method in brief: as §2

duck salad = experiment: Test B flood test duck salad; assay type: in vivo, Heteranthera limosa
Method in brief: as §1

morningglory = experiment: Test B pre/postemergence morningglory; assay type: in vivo, Ipomoea hederacea; settings: for Morningglory plant response rating: scale of 0 to 10 where 0 is no effect and 10 is complete control
Method in brief: as §2

rape = experiment: Test B pre/postemergence rape; assay type: in vivo, Brassica napus; settings: for Rape plant response rating: scale of 0 to 10 where 0 is no effect and 10 is complete control
Method in brief: as §2

smallflower flatsedge = experiment: Test B flood test smallflower flatsedge; assay type: in vivo, Cyperus difformis
Method in brief: as §1

wild oat = experiment: Test B pre/postemergence wild oat; assay type: in vivo, Avena fatua; settings: for Wild oats plant response rating: scale of 0 to 10 where 0 is no effect and 10 is complete control
Method in brief: as §2

[1] = Postemergence (flood test), Rate 125 g/ha, scale 0 to 10, 0 is no effect, 10 is complete control
[2] = Rate 62 g/ha, Postemergence (flood test species), scale of 0 to 10 where 0 is no effect and 10 is complete control
[3] = Rate 500 g/ha, listed under Postemergence (flood test species), scale 0 to 10, 0 no effect, 10 complete control
[4] = Postemergence, Rate 125 g/ha, scale 0 to 10, 0 is no effect, 10 is complete control
[5] = Preemergence, Rate 62 g/ha, scale 0 to 10 (0 no effect, 10 complete control)
[6] = Rate 500 g/ha, Postemergence, scale 0 to 10, 0 no effect, 10 complete control

## CC(C)N(C(=O)n1oc(=O)n(CC2CCCO2)c1=O)c1ccc(F)cc1 (stereo not drawn) [Compound 343]
rice; [1]
  Plant response rating, Rice: 0
rice; [2]
  Rice plant response rating: 0
rice; [3]
  Plant response rating, Rice: 0
wheat; [4]
  Plant response rating, Wheat: 4
wheat; [5]
  Plant response rating, Wheat: 0
wheat; Preemergence, Rate 125 g/ha
  Wheat plant response rating (0 to 10 scale): 0
wheat; Preemergence, Rate 250 g/ha
  Wheat plant response rating: 0
wheat; Preemergence, Rate 500 g/ha
  Wheat plant response rating: 5
wheat; Rate 62 g/ha, Postemergence
  Wheat plant response rating: 2
wheat; [6]
  Plant response rating, Wheat: 5
Sugar beet; [4]
  Plant response rating, Sugarbeets: 0
Sugar beet; [5]
  Plant response rating, Sugarbeets: 0
Sugar beet; Preemergence, Rate 125 g/ha
  Sugarbeets plant response rating (0 to 10 scale): 0
Sugar beet; Preemergence, Rate 250 g/ha
  Sugarbeets plant response rating: 1
Sugar beet; Preemergence, Rate 500 g/ha
  Sugarbeets plant response rating: 6
Sugar beet; Rate 62 g/ha, Postemergence
  Sugarbeets plant response rating: 0
Sugar beet; [6]
  Plant response rating, Sugarbeets: 3
cocklebur; [4]
  Plant response rating, Cocklebur: 0
cocklebur; [5]
  Plant response rating, Cocklebur: 0
cocklebur; Preemergence, Rate 250 g/ha
  Cocklebur plant response rating: 0
cocklebur; Preemergence, Rate 500 g/ha
  Cocklebur plant response rating: 0
cocklebur; Rate 62 g/ha, Postemergence
  Cocklebur plant response rating: 0
cocklebur; [6]
  Plant response rating, Cocklebur: 4
bamyardgrass; [1]
  Plant response rating, Barnyardgrass: 0
bamyardgrass; [2]
  Barnyardgrass plant response rating: 0
bamyardgrass; Rate 250 g/ha, Postemergence (flood test species), scale of 0 to 10 where 0 is no effect and 10 is complete control
  Plant response rating, Barnyardgrass: 0
bamyardgrass; [3]
  Plant response rating, Barnyardgrass: 2
Giant foxtail; [4]
  Plant response rating, Giant foxtail: 7
Giant foxtail; [5]
  Plant response rating, Giant foxtail: 10
Giant foxtail; Preemergence, Rate 125 g/ha
  Giant foxtail plant response rating (0 to 10 scale): 10
Giant foxtail; Preemergence, Rate 250 g/ha
  Giant foxtail plant response rating: 10
Giant foxtail; Preemergence, Rate 500 g/ha
  Giant foxtail plant response rating: 10
Giant foxtail; Rate 62 g/ha, Postemergence
  Giant foxtail plant response rating: 7
Giant foxtail; [6]
  Plant response rating, Giant foxtail: 9
Purple nutsedge; [4]
  Plant response rating, Nutsedge: 0
Purple nutsedge; [5]
  Plant response rating, Nutsedge: 0
Purple nutsedge; Preemergence, Rate 125 g/ha
  Nutsedge plant response rating (0 to 10 scale): 0
Purple nutsedge; Preemergence, Rate 250 g/ha
  Nutsedge plant response rating: 0
Purple nutsedge; Preemergence, Rate 500 g/ha
  Nutsedge plant response rating: 0
Purple nutsedge; Rate 62 g/ha, Postemergence
  Nutsedge plant response rating: 0
Purple nutsedge; [6]
  Plant response rating, Nutsedge: 3
soybean; [4]
  Plant response rating, Soybean: 1
soybean; [5]
  Plant response rating, Soybean: 0
soybean; Preemergence, Rate 125 g/ha
  Soybean plant response rating (0 to 10 scale): 0
soybean; Preemergence, Rate 250 g/ha
  Soybean plant response rating: 0
soybean; Preemergence, Rate 500 g/ha
  Soybean plant response rating: 0
soybean; Rate 62 g/ha, Postemergence
  Soybean plant response rating: 1
soybean; [6]
  Plant response rating, Soybean: 3
pigweed; [4]
  Plant response rating, Redroot pigweed: 0
pigweed; [5]
  Plant response rating, Redroot pigweed: 10
pigweed; Preemergence, Rate 125 g/ha
  Redroot pigweed plant response rating (0 to 10 scale): 10
pigweed; Preemergence, Rate 250 g/ha
  Redroot pigweed plant response rating: 10
pigweed; Preemergence, Rate 500 g/ha
  Redroot pigweed plant response rating: 10
pigweed; Rate 62 g/ha, Postemergence
  Redroot pigweed plant response rating: 0
pigweed; [6]
  Plant response rating, Redroot pigweed: 5
blackgrass; [4]
  Plant response rating, Blackgrass: 3
blackgrass; [5]
  Plant response rating, Blackgrass: 7
blackgrass; Preemergence, Rate 125 g/ha
  Blackgrass plant response rating (0 to 10 scale): 8
blackgrass; Preemergence, Rate 250 g/ha, scale of 0 to 10 where 0 is no effect and 10 is complete control
  Blackgrass plant response rating: 9
blackgrass; Preemergence, Rate 500 g/ha, scale of 0 to 10 where 0 is no effect and 10 is complete control
  Blackgrass plant response rating: 10
blackgrass; Rate 62 g/ha, Postemergence, scale of 0 to 10 where 0 is no effect and 10 is complete control
  Blackgrass plant response rating: 3
blackgrass; Rate 250 g/ha, Postemergence, scale of 0 to 10 where 0 is no effect and 10 is complete control
  Plant response rating, Blackgrass: 5
blackgrass; [6]
  Plant response rating, Blackgrass: 6
velvetleaf; [4]
  Plant response rating, Velvetleaf: 0
velvetleaf; [5]
  Plant response rating, Velvetleaf: 5
velvetleaf; Preemergence, Rate 125 g/ha
  Velvetleaf plant response rating (0 to 10 scale): 6
velvetleaf; Preemergence, Rate 250 g/ha
  Velvetleaf plant response rating: 7
velvetleaf; Preemergence, Rate 500 g/ha
  Velvetleaf plant response rating: 7
velvetleaf; Rate 62 g/ha, Postemergence
  Velvetleaf plant response rating: 0
velvetleaf; [6]
  Plant response rating, Velvetleaf: 5
Duck salad; [1]
  Plant response rating, Ducksalad: 0
Duck salad; [2]
  Ducksalad plant response rating: 0
Duck salad; [3]
  Plant response rating, Ducksalad: 0
morningglory; [4]
  Plant response rating, Morningglory: 2
morningglory; [5]
  Plant response rating, Morningglory: 0
morningglory; Preemergence, Rate 125 g/ha
  Morningglory plant response rating (0 to 10 scale): 2
morningglory; Preemergence, Rate 500 g/ha
  Morningglory plant response rating: 3
morningglory; Rate 62 g/ha, Postemergence
  Morningglory plant response rating: 2
morningglory; [6]
  Plant response rating, Morningglory: 9
rape; [4]
  Plant response rating, Rape: 0
rape; [5]
  Plant response rating, Rape: 0
rape; Preemergence, Rate 125 g/ha
  Rape plant response rating (0 to 10 scale): 0
rape; Preemergence, Rate 250 g/ha
  Rape plant response rating: 4
rape; Preemergence, Rate 500 g/ha
  Rape plant response rating: 6
rape; Rate 62 g/ha, Postemergence
  Rape plant response rating: 0
rape; [6]
  Plant response rating, Rape: 3
Smallflower flatsedge; [1]
  Plant response rating, S. Flatsedge: 0
Smallflower flatsedge; [2]
  S. Flatsedge plant response rating: 0
Smallflower flatsedge; [3]
  Plant response rating, S. Flatsedge: 0
Wild oat; [4]
  Plant response rating, Wild oats: 4
Wild oat; [5]
  Plant response rating, Wild oats: 2
Wild oat; Preemergence, Rate 125 g/ha
  Wild oats plant response rating (0 to 10 scale): 4
Wild oat; Preemergence, Rate 250 g/ha
  Wild oats plant response rating: 9
Wild oat; Preemergence, Rate 500 g/ha
  Wild oats plant response rating: 9
Wild oat; Rate 62 g/ha, Postemergence
  Wild oats plant response rating: 0
Wild oat; [6]
  Plant response rating, Wild oats: 4
